Reference: patent US12514859B2, “Pyrazole pyrimidine derivative and uses thereof” (Yissum Research Development Company of the Hebrew …, priority 2015, dated 2026)

Key:
IRAK1 [1] = biological target: T1, IRAK1 (Homo sapiens, UniProt P51617); assay: IRAK1 inhibition in RKO cells treated with TNFα (Western blot); assay type: cell-based; details: RKO cells, Western blot; A51 1 μM, A14 2 μM, 16 hours, TNFα 100 units/ml
T1 construct: endogenous in cells; host or cells: RKO cells, stimulated with TNFα
T1 sequence (P51617 whole entry): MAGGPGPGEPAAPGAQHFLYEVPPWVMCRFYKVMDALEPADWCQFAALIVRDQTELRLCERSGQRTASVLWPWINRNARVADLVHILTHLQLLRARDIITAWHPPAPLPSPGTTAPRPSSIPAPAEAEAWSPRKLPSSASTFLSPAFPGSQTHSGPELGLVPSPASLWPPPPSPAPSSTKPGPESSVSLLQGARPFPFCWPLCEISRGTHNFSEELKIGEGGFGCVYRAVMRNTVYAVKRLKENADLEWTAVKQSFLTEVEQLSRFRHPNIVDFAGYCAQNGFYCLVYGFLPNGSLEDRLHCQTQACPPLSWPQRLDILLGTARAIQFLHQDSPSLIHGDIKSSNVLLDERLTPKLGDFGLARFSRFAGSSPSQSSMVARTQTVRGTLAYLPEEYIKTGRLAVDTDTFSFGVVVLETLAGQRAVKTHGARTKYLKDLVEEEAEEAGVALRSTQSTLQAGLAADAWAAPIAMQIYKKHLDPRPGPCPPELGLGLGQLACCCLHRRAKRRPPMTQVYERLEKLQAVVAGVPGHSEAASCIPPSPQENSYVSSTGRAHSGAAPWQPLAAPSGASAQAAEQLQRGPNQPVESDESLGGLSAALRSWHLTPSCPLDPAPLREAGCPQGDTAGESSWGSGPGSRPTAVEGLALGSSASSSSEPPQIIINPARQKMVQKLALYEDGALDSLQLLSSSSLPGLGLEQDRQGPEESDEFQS
Method: (§1) Cells were harvested and analyzed by Western blot. Blots were incubated with the following antibodies: Phospho-IRAK1 (Thr209), (A1074, AssayBiothechnology; 1/1,000), Phospho-IKKα/β (Ser176/180) (16A6, Cell Signaling; 1/1,000), IKKα (2682, cell signaling; 1/1,1000), IKK β (2370, cell signaling; 1/1,1000), Phospho-c-Jun (Ser 63) (9261, cell signaling; 1/1,1000), p53 (DO-1&1801 hybridoma mix; dilution of 1:20 of supernatants from each), CKIα (C-19; 1/1,000; Santa Cruz Biotechnology) and phospho-histoneH2AX (S139; 1/1,000; Millipore). Secondary antibodies were HRP-linked goat anti-mouse, goat anti-rabbit and rabbit anti-goat antibodies (all 1/10,000; Jackson). Inhibition of Phospho-IRAK1, Phospho-IKKα/β and Phospho-c-Jun indicate IRAK1 inhibition. p53 stabilization and phosphorylation of H2AX (γH2AX), a marker of DNA damage, indicative of CKIα kinase inhibition. CKIα protein levels serves as a loading control.
as §1, with “IRAK1 Inhibition with compounds of the invention. RKO cells were incubated for 16 hours at 37° C. with the indicated concentrations of compounds of the invention A51 (1 μM) and A14 (2 μM) (FIG. 10). At the indicated time points, RKO were treated with TNFα (100 units/ml). Cells” for “Cells”, “IKKβ” for “IKK β”, “Blots were developed using ECL (GE Healthcare). […] Also shown is” for “Inhibition of Phospho-IRAK1, Phospho-IKKα/β and Phospho-c-Jun indicate IRAK1 inhibition.”

[2] = system: p53, DNA damage response (γH2AX); assay: p53 and DNA damage response activation in RKO cells (Western blot, primary screen and dose response); assay type: cell-based; details: 16 hours, Western blot, average value
Summary of the method: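 RKO colorectal cells exposed to 10 μM compound (primary screen) or descending concentrations (dose response) for 16 h at 37° C. Lysates Western-blotted for β-catenin, p53, CKIα and phospho-H2AX (S139), ECL detection. p53/DDR activation and β-catenin stabilization scored semi-quantitatively by degree of protein stabilization across several blots.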

IRAK1 [3] = biological target: T1, IRAK1; assay: Kd measurements for the interaction with IRAK1; assay type: binding

IRAK1 activation and activation of the IRAK1 target IKK (in words) (IRAK1 [1]): inhibition of IRAK1 activation
Kd (IRAK1 [3]): 11 nM
SMILES: Cn1ncc(-c2ccnc(N[C@H]3CC[C@H](N)CC3)n2)c1CC1CC1 [Compound A14, (1R, 4R)—N^1-(4-(5-(cyclopropylmethyl)-1-methyl-1H-pyrazol-4-yl)pyrimidin-2-yl)cyclohexane-1,4-diamine]
DDR & p53 activity [2]: +++ (+++ indicates maximal β-catenin or p53 stabilization at >2 μM)
